Reference: the supplement of paper PMC10307832

How the values were obtained:
Assay in all cases: relative viability (nuclei count vs DMSO), 5 days (fraction); higher = more cells survive
[1] = compound: COc1cc(Nc2c(C#N)cnc3cc(OCCCN4CCN(C)CC4)c(OC)cc23)c(Cl)cc1Cl [Bosutinib] + Nc1nc2[nH]cc(CCc3ccc(C(=O)N[C@@H](CCC(=O)O)C(=O)O)cc3)c2c(=O)[nH]1 [Pemetrexed] (partner 0.2 µM)
Outline: (§1)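 Medians of duplicate plates are given as relative viability. That measure is the nuclei count in treated wells divided by the count in vehicle wells. Counts were taken on 4× images of lung cancer cell lines in 1536-well plates, 5 days after pin-tool dosing the day after seeding with one drug alone or a fixed anchor-drug dose plus five library-drug doses (not always all listed) in √10 steps.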

[2] = compound: COc1cc(Nc2c(C#N)cnc3cc(OCCCN4CCN(C)CC4)c(OC)cc23)c(Cl)cc1Cl [Bosutinib] + COc1cccc2cc(-c3nc([C@H]4CC[C@H](C(=O)O)CC4)n4ncnc(N)c34)[nH]c12 [OSI-027] (partner 0.5 µM)
Outline: as §1

[3] = compound: COc1cc(Nc2c(C#N)cnc3cc(OCCCN4CCN(C)CC4)c(OC)cc23)c(Cl)cc1Cl [Bosutinib] + CC(C)C[C@H](NC(=O)[C@H](Cc1ccccc1)NC(=O)c1cnccn1)B(O)O [Bortezomib] (partner 0.002 µM)
Outline: as §1

[4] = compound: COc1cc(Nc2c(C#N)cnc3cc(OCCCN4CCN(C)CC4)c(OC)cc23)c(Cl)cc1Cl [Bosutinib] + Nc1ncn([C@H]2C[C@H](O)[C@@H](CO)O2)c(=O)n1 [Decitabine] (partner 2 µM)
Outline: as §1

[5] = compound: COc1cc(Nc2c(C#N)cnc3cc(OCCCN4CCN(C)CC4)c(OC)cc23)c(Cl)cc1Cl [Bosutinib] + C[C@@H](Oc1cc(-c2cnn(C3CCNCC3)c2)cnc1N)c1c(Cl)ccc(F)c1Cl [Crizotinib] (partner 1 µM)
Outline: as §1

| Cell Line | relative viability ([1]; first compound 0.01 µM) | relative viability ([1]; first compound 0.03162 µM) | relative viability ([1]; first compound 0.1 µM) | relative viability ([1]; first compound 1 µM) | relative viability ([2]; first compound 0.01 µM) | relative viability ([2]; first compound 0.03162 µM) | relative viability ([2]; first compound 0.1 µM) | relative viability ([2]; first compound 1 µM) | relative viability ([3]; first compound 0.01 µM) | relative viability ([3]; first compound 0.03162 µM) | relative viability ([3]; first compound 0.1 µM) | relative viability ([3]; first compound 1 µM) | relative viability ([4]; first compound 0.01 µM) | relative viability ([4]; first compound 0.03162 µM) | relative viability ([4]; first compound 0.1 µM) | relative viability ([4]; first compound 1 µM) | relative viability ([5]; first compound 0.01 µM) | relative viability ([5]; first compound 0.03162 µM) | relative viability ([5]; first compound 0.1 µM) | relative viability ([5]; first compound 1 µM) |
| --- | --- | --- | --- | --- | --- | --- | --- | --- | --- | --- | --- | --- | --- | --- | --- | --- | --- | --- | --- | --- |
| LOU-NH91 | 0.394 | 0.395 | 0.378 | 0.4 | 0.742 | 0.707 | 0.728 | 0.51 | 0.469 | 0.487 | 0.514 | 0.578 | 0.818 | 0.834 | 0.765 | 0.653 | 0.737 | 0.723 | 0.707 | 0.49 |
| LU99A | 0.2 | 0.208 | 0.193 | 0.182 | 0.313 | 0.332 | 0.32 | 0.343 | 1.16 | 1.17 | 1.33 | 0.938 | 0.871 | 0.945 | 0.961 | 0.861 | 0.527 | 0.561 | 0.563 | 0.647 |
| LXF-289 | 0.908 | 1.04 | 0.985 | 0.88 | 0.765 | 0.849 | 0.823 | 0.898 | 1 | 1.03 | 1.02 | 0.991 | 0.338 | 0.368 | 0.427 | 0.449 | 0.829 | 0.823 | 0.79 | 0.898 |
| NCI-H23 | 0.673 | 0.644 | 0.732 | 0.609 | 0.583 | 0.605 | 0.601 | 0.533 | 1 | 1.21 | 1.04 | 1.05 | 0.35 | 0.305 | 0.321 | 0.287 | 0.636 | 0.464 | 0.512 | 0.458 |
| NCI-H322M | 0.579 | 0.594 | 0.6 | 0.521 | 0.531 | 0.566 | 0.549 | 0.422 | 1.23 | 1.14 | 1.35 | 1.22 | 0.635 | 0.735 | 0.616 | 0.493 | 1.08 | 0.949 | 0.968 | 1 |
| NCI-H441 | 0.242 | 0.272 | 0.264 | 0.251 | 0.622 | 0.71 | 0.719 | 0.628 | 0.579 | 0.726 | 0.44 | 0.806 | 0.24 | 0.264 | 0.279 | 0.287 | 0.909 | 0.705 | 0.808 | 1.3 |
| NCI-H460 | 0.0612 | 0.0671 | 0.0657 | 0.073 | 0.803 | 0.631 | 0.7 | 0.603 | 1.17 | 1.04 | 1.01 | 0.91 | 0.5 | 0.475 | 0.539 | 0.419 | 0.85 | 0.884 | 0.859 | 0.639 |
| NCI-H520 | 0.661 | 0.666 | 0.627 | 0.605 | 0.293 | 0.257 | 0.235 | 0.196 | 0.771 | 0.419 | 0.52 | 0.396 | 0.465 | 0.47 | 0.533 | 0.409 | 0.806 | 0.74 | 0.635 | 0.676 |
